Publication PMC6942878 (Analytical biochemistry, 2019)

Target: murine double minute 2 (MDM2) (Homo sapiens, UniProt Q00987)
Assay: biochemical
Type: binding

murine double minute 2 (MDM2), sequence (Q00987 3-155): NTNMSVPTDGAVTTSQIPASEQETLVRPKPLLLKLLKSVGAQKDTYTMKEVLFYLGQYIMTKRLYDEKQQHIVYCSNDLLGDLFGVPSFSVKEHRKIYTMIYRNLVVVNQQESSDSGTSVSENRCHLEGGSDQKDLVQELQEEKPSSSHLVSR

CN1CCCC(n2nc(Cc3ccc(Cl)cc3)c3ccccc3c2=O)CC1 (centres unmarked) [azelastine]
IC50: 367 nM

CC(C)COCC(CN(Cc1ccccc1)c1ccccc1)N1CCCC1 (centres unmarked) [bepridil]
IC50: 206 nM
